Reference: patent US9321764B2, “Dihydro-pyrrolopyridinone inhibitors” (AbbVie Inc., priority 2013, dated 2016)

How the values were obtained:
[1] = system: breast cancer cell line MX-1; assay: MX-1 cell line proliferation assay; format: cell-based; conditions: Homo sapiens, MX1, 72 h, MX-1 cells, 3-day proliferation assay, Cell Titer Glo; read-out: Cellular proliferation EC50
Summary of the method: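 Cells seeded at 5000/well in RPMI 1640 with 10% FBS, allowed to adhere overnight at 37 °C, then exposed to compound at final 0.0001–3 μM for 3 days. Viability read by Cell Titer Glo luminescence, normalized to DMSO controls; EC50 from sigmoidal curve fit.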

BRD4 (BDI_K57-E168) = target: T1, BRD4 (BDI_K57-E168) (Homo sapiens, UniProt O60885); assay: TR-FRET bromodomain binding assay, first bromodomain of BRD4; conditions: His-tagged BD1, 100 nM Alexa647 probe; TR-FRET protocol A-E given per row
T1 construct: BD1: amino acids K57-E168; made in house
Summary of the method: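 His-tagged BRD4 BD1 (K57-E168), 8 nM, with 1 nM Eu-anti-His antibody and 100 nM Alexa647-labelled BET-inhibitor probe in pH 6.0 phosphate buffer, 2% DMSO. TR-FRET read after 1 h at room temperature. IC50 from 4-parameter fit, converted to Ki using probe Kd and concentration.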

BRD4 (BDII_E352-M457) = target: T2, BRD4 (BDII_E352-M457) (Homo sapiens, UniProt O60885); assay: TR-FRET bromodomain binding assay, second bromodomain of BRD4; conditions: His-tagged BD2, 30 nM Alexa647 probe; TR-FRET protocol A-E given per row
T2 construct: proliferation; Protocol; made in house
Summary of the method: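 His-tagged BRD4 BD2 ([…]) competed against an Alexa647-labelled BET-inhibitor probe in TR-FRET. Buffer was 20 mM sodium phosphate pH 6.0, 50 mM NaCl, 1 mM EDTA, 0.01% Triton X-100, 1 mM DTT, with method D DMSO series of 2.5 mM–800 nM (stock range). IC50 from 4-parameter fit, Ki from probe Kd and concentration.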

Row | SMILES | EC50 [1] [nM] | Ki (BRD4 (BDI_K57-E168)) [nM] | Ki (BRD4 (BDII_E352-M457)) [nM]
1 | CCc1cc2c(-c3cc(CS(C)(=O)=O)ccc3Oc3ccc(F)cc3F)cn(C)c2c(=O)[nH]1 [Example 92, 3-{2-(2,4-difluorophenoxy)-5-[(methylsulfonyl)methyl]phenyl}-5-ethyl-1-methyl-1,6-dihydro-7H-pyrrolo[2,3-c]pyridin-7-one] | 8 | 1.7 | 1.8
2 | Cn1cc(-c2cc(CS(C)(=O)=O)ccc2Oc2ccc(F)cc2F)c2cc(Cl)[nH]c(=O)c21 [Example 91, 5-chloro-3-{2-(2,4-difluorophenoxy)-5-[(methylsulfonyl)methyl]phenyl}-1-methyl-1,6-dihydro-7H-pyrrolo[2,3-c]pyridin-7-one] | 8 | 5.4 | 9.5
3 | Cn1cc(-c2cc(CS(=O)(=O)NC3CCCCC3)ccc2Oc2ccc(F)cc2F)c2cc[nH]c(=O)c21 [Example 102, N-cyclohexyl-1-[4-(2,4-difluorophenoxy)-3-(1-methyl-7-oxo-6,7-dihydro-1H-pyrrolo[2,3-c]pyridin-3-yl)phenyl]methanesulfonamide] | 739 | 95 | 81
4 | CC(=O)N1CCC(Oc2ccc(S(C)(=O)=O)cc2-c2cn(C)c3c(=O)[nH]ccc23)CC1 [Example 67, 3-{2-[(1-acetylpiperidin-4-yl)oxy]-5-(methylsulfonyl)phenyl}-1-methyl-1,6-dihydro-7H-pyrrolo[2,3-c]pyridin-7-one] | > 3000 | 45 | 1380
5 | CCS(=O)(=O)C(C)c1ccc(Oc2ccc(F)cc2F)c(-c2cn(C)c3c(=O)[nH]ccc23)c1 (single isomer, unassigned) [Example 56] | 36 | 13 | 18
6 | Cn1cc(-c2cc(S(C)(=O)=O)ccc2Oc2ccc(F)cc2)c2cc[nH]c(=O)c21 [Example 61, 3-[2-(4-fluorophenoxy)-5-(methylsulfonyl)phenyl]-1-methyl-1,6-dihydro-7H-pyrrolo[2,3-c]pyridin-7-one] | 125 | 18 | 43
7 | Cn1cc(-c2cc(S(C)(=O)=O)ccc2Oc2ccc3ccccc3c2)c2cc[nH]c(=O)c21 [Example 63, 1-methyl-3-[5-(methylsulfonyl)-2-(naphthalen-2-yloxy)phenyl]-1,6-dihydro-7H-pyrrolo[2,3-c]pyridin-7-one] | 187 | 74 | 66
8 | Cn1cc(-c2cc(S(C)(=O)=O)ccc2OCCC2CC2)c2c(Cl)c[nH]c(=O)c21 [Example 109, 4-chloro-3-[2-(2-cyclopropylethoxy)-5-(methylsulfonyl)phenyl]-1-methyl-1,6-dihydro-7H-pyrrolo[2,3-c]pyridin-7-one] | 268 | 57 | 67
9 | Cn1cc(-c2cc(NS(C)(=O)=O)c(Oc3ccc(F)cc3F)cc2Oc2ccc(F)cc2F)c2cc[nH]c(=O)c21 [Example 13, N-[2,4-bis(2,4-difluorophenoxy)-5-(1-methyl-7-oxo-6,7-dihydro-1H-pyrrolo[2,3-c]pyridin-3-yl)phenyl]methanesulfonamide] | 136 | 173 | 213
10 | Cn1cc(-c2cc(S(C)(=O)=O)ccc2NCC2C[C@@H]3CC[C@H]2C3)c2cc[nH]c(=O)c21 (stereo partly drawn) [Example 71, 3-[2-{[(1S,4R)-bicyclo[2.2.1]hept-2-ylmethyl]amino}-5-(methylsulfonyl)phenyl]-1-methyl-1,6-dihydro-7H-pyrrolo[2,3-c]pyridin-7-one] | 255 | 197 | 285
11 | CCS(=O)(=O)C(C)c1ccc(Oc2ccc(F)cc2F)c(-c2cn(C)c3c(=O)[nH]ccc23)c1 (stereo not drawn) [Example 55, 3-{2-(2,4-difluorophenoxy)-5-[1-(ethylsulfonyl)ethyl]phenyl}-1-methyl-1,6-dihydro-7H-pyrrolo[2,3-c]pyridin-7-one] | 29 | 4.2 | 9.9
12 | CCS(=O)(=O)c1ccc(Oc2ccc(C)cc2Cl)c(-c2cn(C)c3c(=O)[nH]ccc23)c1 [Example 73, 3-[2-(2-chloro-4-methylphenoxy)-5-(ethylsulfonyl)phenyl]-1-methyl-1,6-dihydro-7H-pyrrolo[2,3-c]pyridin-7-one] | 194 | 43 | 21
13 | CN(C)S(=O)(=O)Cc1ccc(Oc2ccc(F)cc2F)c(-c2cn(C)c3c(=O)[nH]ccc23)c1 [Example 101, 1-[4-(2,4-difluorophenoxy)-3-(1-methyl-7-oxo-6,7-dihydro-1H-pyrrolo[2,3-c]pyridin-3-yl)phenyl]-N,N-dimethylmethanesulfonamide] | 5 | 2.2 | 2.5

The next lines start with the values.

Row | EC50 [1] [nM] | Ki (BRD4 (BDI_K57-E168)) [nM] | Ki (BRD4 (BDII_E352-M457)) [nM] | SMILES
14 | 338 | 32.8 | 156 | Cn1cc(-c2cc(NCc3ccc(C#N)cc3)ccc2Oc2ccc(F)cc2F)c2cc[nH]c(=O)c21 [Example 167, 4-({[4-(2,4-difluorophenoxy)-3-(1-methyl-7-oxo-6,7-dihydro-1H-pyrrolo[2,3-c]pyridin-3-yl)phenyl]amino}methyl)benzonitrile]
15 | 98.3 | 5.82 | 16.3 | Cn1cc(-c2cc(CS(C)(=O)=O)cc(C3CC3)c2Nc2ccc(F)cc2F)c2cc[nH]c(=O)c21 [Example 202, 3-{3-cyclopropyl-2-[(2,4-difluorophenyl)amino]-5-[(methylsulfonyl)methyl]phenyl}-1-methyl-1,6-dihydro-7H-pyrrolo[2,3-c]pyridin-7-one]
16 | 73.1 | 8.2 | 107 | Cn1cc(-c2cc(S(=O)(=O)N3CCCC3)ccc2O[C@H]2CC[C@H](N(C)C)CC2)c2cc[nH]c(=O)c21 [Example 144, 3-[2-{[trans-4-(dimethylamino)cyclohexyl]oxy}-5-(pyrrolidin-1-ylsulfonyl)phenyl]-1-methyl-1,6-dihydro-7H-pyrrolo[2,3-c]pyridin-7-one]
17 | 310 | 27.8 | 163 | CC(=O)Nc1ccc(C(=O)Nc2ccc(Oc3ccc(F)cc3F)c(-c3cn(C)c4c(=O)[nH]ccc34)c2)cc1 [Example 155, 4-(acetylamino)-N-[4-(2,4-difluorophenoxy)-3-(1-methyl-7-oxo-6,7-dihydro-1H-pyrrolo[2,3-c]pyridin-3-yl)phenyl]benzamide]
18 | 29.9 | 1.42 | 13.5 | CCS(=O)(=O)Nc1ccc(Oc2ccc(F)cc2F)c(-c2cn(C)c3c(=O)[nH]c(C(=O)NCCN(C)C)cc23)c1 [Example 188, 3-{2-(2,4-difluorophenoxy)-5-[(ethylsulfonyl)amino]phenyl}-N-[2-(dimethylamino)ethyl]-1-methyl-7-oxo-6,7-dihydro-1H-pyrrolo[2,3-c]pyridine-5-carboxamide]
19 | 1680 | 49 | 2680 | Cn1cc(-c2cc(CNS(=O)(=O)Cc3ccc(C(F)(F)F)cc3)ccc2Oc2ccc(F)cc2F)c2cc[nH]c(=O)c21 [Example 133, N-[4-(2,4-difluorophenoxy)-3-(1-methyl-7-oxo-6,7-dihydro-1H-pyrrolo[2,3-c]pyridin-3-yl)benzyl]-1-[4-(trifluoromethyl)phenyl]methanesulfonamide]
20 | 40 | 12 | 79 | Cn1cc(-c2cc(CS(C)(=O)=O)ccc2Nc2ccc(F)cc2)c2cc[nH]c(=O)c21 [Example 121, 3-{2-[(4-fluorophenyl)amino]-5-[(methylsulfonyl)methyl]phenyl}-1-methyl-1,6-dihydro-7H-pyrrolo[2,3-c]pyridin-7-one]
21 | > 3000 | 1490 | 654 | Cn1cc(-c2cc(CNCCC3CCCC3)ccc2Oc2ccc(F)cc2F)c2cc[nH]c(=O)c21 [Example 128, 3-[5-{[(2-cyclopentylethyl)amino]methyl}-2-(2,4-difluorophenoxy)phenyl]-1-methyl-1,6-dihydro-7H-pyrrolo[2,3-c]pyridin-7-one]
22 | 13.4 | 0.38 | 0.82 | CCS(=O)(=O)Nc1ccc(Oc2ccc(F)cc2F)c(-c2cn(C)c3c(=O)[nH]c(C4CCN(S(=O)(=O)CC)CC4)cc23)c1 [Example 186, N-[4-(2,4-difluorophenoxy)-3-{5-[1-(ethylsulfonyl)piperidin-4-yl]-1-methyl-7-oxo-6,7-dihydro-1H-pyrrolo[2,3-c]pyridin-3-yl}phenyl]ethanesulfonamide]
23 | 200 | 16.1 | 32 | Cc1cnc(C(=O)Nc2ccc(Oc3ccc(F)cc3F)c(-c3cn(C)c4c(=O)[nH]ccc34)c2)cn1 [Example 151, N-[4-(2,4-difluorophenoxy)-3-(1-methyl-7-oxo-6,7-dihydro-1H-pyrrolo[2,3-c]pyridin-3-yl)phenyl]-5-methylpyrazine-2-carboxamide]
24 | 61.4 | 4.29 | 7.94 | CCS(=O)(=O)Nc1ccc(Oc2ccc(F)cc2F)c(-c2cn(C)c3c(=O)[nH]c(C4CCN(C(=O)C5CC5)CC4)cc23)c1 [Example 185, N-[3-{5-[1-(cyclopropylcarbonyl)piperidin-4-yl]-1-methyl-7-oxo-6,7-dihydro-1H-pyrrolo[2,3-c]pyridin-3-yl}-4-(2,4-difluorophenoxy)phenyl]ethanesulfonamide]
